From paper PMC6100082, “Pyridine-Ureas as Potential Anticancer Agents: Synthesis and In Vitro Biological Evaluation” (Molecules : A Journal of Synthetic Chemistry and Natural …, 2018)

Experiments:
Format in all cases: cell-based, human
[1] = tested on: NCI 58 cell line panel; experiment: NCI one-dose SRB assay, whole panel / subpanel summary
Method: (§1) The structures of all the newly prepared pyridine-ureas 8a–n were submitted to the National Cancer Institute (NCI) Developmental Therapeutic Program. Eight compounds 8b, 8d, 8e, 8i, 8j and 8l–n were selected to be examined for their in vitro growth inhibitory activity. The anticancer assays were carried out according to the protocol of the Drug Evaluation Branch, NCI, Bethesda. The selected pyridine-ureas were tested at one dose primary anticancer assay against a panel of approximately 58 cancer lines (concentration 10^−5 M). The tested human cancer cell lines emerged from nine different cancer subtypes: leukemia, colon, melanoma, ovarian, lung, CNS, renal, breast and prostate cancers. The sulforhodamine B (SRB) protein assay was adopted to estimate the cell viability and growth. The results were reported as mean-graph of the percentage growth of the treated cells, and presented as percentage growth inhibition (GI%) caused by the test compounds (Table 2).
(§2) The anticancer assays were performed in accordance with the protocol of the Drug Evaluation Branch, NCI, Bethesda. A 48 h drug exposure protocol was used and sulforhodamine B (SRB) protein assay was applied to estimate the cell viability and growth, as reported earlier.

[2] = tested on: CCRF-CEM; experiment: NCI one-dose SRB assay (Leukemia)
Method: as §1, §2

[3] = tested on: HL-60(TB); experiment: NCI one-dose SRB assay (Leukemia)
Method: as §1, §2

[4] = tested on: K-562; experiment: NCI one-dose SRB assay (Leukemia)
Method: as §1, §2

[5] = tested on: MOLT-4; experiment: NCI one-dose SRB assay (Leukemia)
Method: as §1, §2

[6] = tested on: RPMI-8226; experiment: NCI one-dose SRB assay (Leukemia)
Method: as §1, §2

[7] = tested on: SR; experiment: NCI one-dose SRB assay (Leukemia)
Method: as §1, §2

[8] = tested on: SF-268; experiment: NCI one-dose SRB assay (CNS Cancer)
Method: as §1, §2

[9] = tested on: SF-295; experiment: NCI one-dose SRB assay (CNS Cancer)
Method: as §1, §2

[10] = tested on: SF-539; experiment: NCI one-dose SRB assay (CNS Cancer)
Method: as §1, §2

[11] = tested on: SNB-19; experiment: NCI one-dose SRB assay (CNS Cancer)
Method: as §1, §2

[12] = tested on: SNB-75; experiment: NCI one-dose SRB assay (CNS Cancer)
Method: as §1, §2

[13] = tested on: U251; experiment: NCI one-dose SRB assay (CNS Cancer)
Method: as §1, §2

[14] = tested on: IGROV1; experiment: NCI one-dose SRB assay (Ovarian Cancer)
Method: as §1, §2

[15] = tested on: NCI/ADR-RES; experiment: NCI one-dose SRB assay (Ovarian Cancer)
Method: as §1, §2

[16] = tested on: OVCAR-3; experiment: NCI one-dose SRB assay (Ovarian Cancer)
Method: as §1, §2

[17] = tested on: OVCAR-4; experiment: NCI one-dose SRB assay (Ovarian Cancer)
Method: as §1, §2

[18] = tested on: OVCAR-5; experiment: NCI one-dose SRB assay (Ovarian Cancer)
Method: as §1, §2

[19] = tested on: OVCAR-8; experiment: NCI one-dose SRB assay (Ovarian Cancer)
Method: as §1, §2

[20] = tested on: SK-OV-3; experiment: NCI one-dose SRB assay (Ovarian Cancer)
Method: as §1, §2

[21] = tested on: 786-0; experiment: NCI one-dose SRB assay (Renal Cancer)
Method: as §1, §2

[22] = tested on: A498; experiment: NCI one-dose SRB assay (Renal Cancer)
Method: as §1, §2

[23] = tested on: RXF 393; experiment: NCI one-dose SRB assay (Renal Cancer)
Method: as §1, §2

[24] = tested on: SN12C; experiment: NCI one-dose SRB assay (Renal Cancer)
Method: as §1, §2

[25] = tested on: TK-10; experiment: NCI one-dose SRB assay (Renal Cancer)
Method: as §1, §2

[26] = tested on: UO-31; experiment: NCI one-dose SRB assay (Renal Cancer)
Method: as §1, §2

[27] = Homo sapiens, 10 μM, read-out: Percentage growth inhibition (GI%)

SMILES: COc1ccc(-c2ccc(NC(=O)Nc3cccc(C(F)(F)F)c3)c(C)n2)cc1 [Compound 8b, 1-(6-(4-Methoxyphenyl)-2-methylpyridin-3-yl)-3-(3-(trifluoromethyl)phenyl) Urea]
- inhibition at 10 µM ([1]; Homo sapiens, 10 μM, one dose, read-out: mean inhibition (mean % growth inhibition over NCI 58 cell line panel)): 43%
- Mean Growth Percent ([1]; One Dose Mean Graph, 1.00E-5 Molar): 57.47%
- Growth Percent ([2]; 1.00E-5 Molar): 42.94%
- inhibition at 10 µM [2, 27]: 58%
- Growth Percent ([3]; 1.00E-5 Molar): 49.75%
- inhibition at 10 µM [3, 27]: 51%
- inhibition at 10 µM ([4]; Homo sapiens, K562, K-562, 10 μM, read-out: Percentage growth inhibition (GI%)): 68%
- Growth Percent ([4]; K-562, 1.00E-5 Molar): 32.55%
- inhibition at 10 µM ([5]; Homo sapiens, MOLT-4, 10 μM, read-out: Percentage growth inhibition (GI%)): 67%
- Growth Percent ([5]; MOLT-4, 1.00E-5 Molar): 33.74%
- inhibition at 10 µM ([6]; Homo sapiens, RPMI-8226, 10 μM, read-out: Percentage growth inhibition (GI%)): 78%
- Growth Percent ([6]; RPMI-8226, 1.00E-5 Molar): 22.58%
- Growth Percent ([7]; 1.00E-5 Molar): 36.30%
- inhibition at 10 µM [7, 27]: 64%
- inhibition at 10 µM ([8]; Homo sapiens, SF-268, 10 μM, read-out: Percentage growth inhibition (GI%)): 26%
- Growth Percent ([8]; SF-268, 1.00E-5 Molar): 74.51%
- inhibition at 10 µM ([9]; Homo sapiens, SF-295, 10 μM, read-out: Percentage growth inhibition (GI%)): 53%
- Growth Percent ([9]; SF-295, 1.00E-5 Molar): 47.56%
- inhibition at 10 µM ([10]; Homo sapiens, SF-539, 10 μM, read-out: Percentage growth inhibition (GI%)): 20%
- Growth Percent ([10]; SF-539, 1.00E-5 Molar): 80.84%
- inhibition at 10 µM ([11]; Homo sapiens, SNB-19, 10 μM, read-out: Percentage growth inhibition (GI%)): 33%
- Growth Percent ([11]; SNB-19, 1.00E-5 Molar): 67.81%
- inhibition at 10 µM ([12]; Homo sapiens, SNB-75, 10 μM, read-out: Percentage growth inhibition (GI%)): 23%
- Growth Percent ([12]; SNB-75, 1.00E-5 Molar): 77.64%
- inhibition at 10 µM ([13]; Homo sapiens, U-251, U251, 10 μM, read-out: Percentage growth inhibition (GI%)): 50%
- Growth Percent ([13]; U251, 1.00E-5 Molar): 50.16%
- inhibition at 10 µM ([14]; Homo sapiens, IGROV-1, IGROV1, 10 μM, read-out: Percentage growth inhibition (GI%)): < 10%
- Growth Percent ([14]; IGROV1, 1.00E-5 Molar): 91.33%
- Growth Percent ([15]; 1.00E-5 Molar): 53.15%
- inhibition at 10 µM [15, 27]: 47%
- inhibition at 10 µM ([16]; Homo sapiens, OVCAR-3, 10 μM, read-out: Percentage growth inhibition (GI%)): 59%
- Growth Percent ([16]; OVCAR-3, 1.00E-5 Molar): 41.93%
- inhibition at 10 µM ([17]; Homo sapiens, OVCAR-4, 10 μM, read-out: Percentage growth inhibition (GI%)): 58%
- Growth Percent ([17]; OVCAR-4, 1.00E-5 Molar): 42.94%
- inhibition at 10 µM ([18]; Homo sapiens, OVCAR-5, 10 μM, read-out: Percentage growth inhibition (GI%)): 17%
- Growth Percent ([18]; OVCAR-5, 1.00E-5 Molar): 83.05%
- inhibition at 10 µM ([19]; Homo sapiens, OVCAR-8, 10 μM, read-out: Percentage growth inhibition (GI%)): 39%
- Growth Percent ([19]; OVCAR-8, 1.00E-5 Molar): 61.89%
- inhibition at 10 µM ([20]; Homo sapiens, SK-OV-3, 10 μM, read-out: Percentage growth inhibition (GI%)): 18%
- Growth Percent ([20]; SK-OV-3, 1.00E-5 Molar): 82.08%
- Growth Percent ([21]; 786-0, 1.00E-5 Molar): 77.34%
- inhibition at 10 µM ([21]; Homo sapiens, 786-0, 10 μM, read-out: Percentage growth inhibition (GI%)): 23%
- Growth Percent ([22]; A498, 1.00E-5 Molar): 52.08%
- inhibition at 10 µM ([22]; Homo sapiens, A498, 10 μM, read-out: Percentage growth inhibition (GI%)): 48%
- inhibition at 10 µM ([23]; Homo sapiens, RXF 393, 10 μM, read-out: Percentage growth inhibition (GI%)): 15%
- Growth Percent ([23]; RXF 393, 1.00E-5 Molar): 85.91%
- Growth Percent ([24]; 1.00E-5 Molar): 67.99%
- inhibition at 10 µM [24, 27]: 33%
- inhibition at 10 µM ([25]; Homo sapiens, TK-10, 10 μM, read-out: Percentage growth inhibition (GI%)): 24%
- Growth Percent ([25]; TK-10, 1.00E-5 Molar): 76.66%
- inhibition at 10 µM ([26]; Homo sapiens, UO-31, 10 μM, read-out: Percentage growth inhibition (GI%)): 45%
- Growth Percent ([26]; UO-31, 1.00E-5 Molar): 55.08%
